According to patent publication US9650379B2 (CHONG KUN DANG PHARMACEUTICAL CORP., priority 2013, dated 2017):

Assays:
HDAC6 human recombinant = target: T1, HDAC6 human recombinant (Homo sapiens, UniProt Q9UBN7); test: Inhibition of HDAC6 activity (fluorimetric assay); format: biochemical; settings: test concentrations 0.1, 1, 10, 100 and 1000 nM; 37° C., 60 minutes
T1 construct: purchased Calbiochem 382180
T1 sequence (Q9UBN7 1-1215): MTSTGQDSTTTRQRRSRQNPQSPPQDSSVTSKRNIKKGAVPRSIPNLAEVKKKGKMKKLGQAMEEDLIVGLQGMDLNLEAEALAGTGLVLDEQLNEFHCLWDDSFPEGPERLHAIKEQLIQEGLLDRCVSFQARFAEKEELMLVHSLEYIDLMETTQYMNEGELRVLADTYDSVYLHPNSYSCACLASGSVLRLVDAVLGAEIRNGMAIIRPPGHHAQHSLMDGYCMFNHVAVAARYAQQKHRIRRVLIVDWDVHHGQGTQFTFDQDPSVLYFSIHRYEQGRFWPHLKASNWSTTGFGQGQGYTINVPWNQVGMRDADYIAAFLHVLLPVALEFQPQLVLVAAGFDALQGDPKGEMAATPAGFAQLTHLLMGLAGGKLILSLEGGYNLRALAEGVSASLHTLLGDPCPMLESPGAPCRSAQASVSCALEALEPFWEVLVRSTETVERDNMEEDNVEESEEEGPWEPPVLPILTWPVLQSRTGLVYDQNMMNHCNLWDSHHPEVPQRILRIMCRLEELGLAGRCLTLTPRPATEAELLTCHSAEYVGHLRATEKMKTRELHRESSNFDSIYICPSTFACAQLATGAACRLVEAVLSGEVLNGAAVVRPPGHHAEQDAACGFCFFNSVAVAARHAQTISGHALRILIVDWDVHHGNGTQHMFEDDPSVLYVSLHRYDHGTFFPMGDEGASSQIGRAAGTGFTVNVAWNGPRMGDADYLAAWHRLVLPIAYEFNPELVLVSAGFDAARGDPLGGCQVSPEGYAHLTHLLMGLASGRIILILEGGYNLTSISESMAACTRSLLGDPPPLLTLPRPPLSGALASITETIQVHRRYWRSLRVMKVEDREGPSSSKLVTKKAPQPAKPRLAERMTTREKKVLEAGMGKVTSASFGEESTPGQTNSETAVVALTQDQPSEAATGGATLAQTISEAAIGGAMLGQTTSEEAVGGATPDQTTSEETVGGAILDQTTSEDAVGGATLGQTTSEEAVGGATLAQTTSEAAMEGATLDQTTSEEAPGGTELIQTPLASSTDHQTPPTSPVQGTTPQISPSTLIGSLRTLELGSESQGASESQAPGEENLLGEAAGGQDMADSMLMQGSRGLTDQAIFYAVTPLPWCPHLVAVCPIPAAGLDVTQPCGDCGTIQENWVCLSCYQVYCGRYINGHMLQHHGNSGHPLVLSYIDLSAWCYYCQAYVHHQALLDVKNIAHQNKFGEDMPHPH
Experimental: (§1) Assays were performed using a HDAC1 fluorimetric drug discovery assay kit (Enzolifesciences: BML-AK511) and a HDAC6 human recombinant (Calbiochem: 382180). The assay mixture of the kit was treated with a test compound at concentrations of 100, 1000 and 10000 nM for HDAC1 assay and concentrations of 0.1, 1, 10, 100 and 1000 nM for HDAC6 assay. The treated assay mixture was allowed to react at 37° C. for 60 minutes, and then was treated with a developer and allowed to stand at 37° C. for 30 minutes, followed by quantification of the fluorescence.

HDAC1 = target: T2, HDAC1 (Homo sapiens, UniProt Q13547); test: Inhibition of HDAC1 activity (HDAC1 fluorimetric drug discovery assay kit); format: biochemical; settings: test concentrations 100, 1000 and 10000 nM; 37° C., 60 minutes
T2 construct: purchased Enzolifesciences BML-AK511
T2 sequence (Q13547 whole entry): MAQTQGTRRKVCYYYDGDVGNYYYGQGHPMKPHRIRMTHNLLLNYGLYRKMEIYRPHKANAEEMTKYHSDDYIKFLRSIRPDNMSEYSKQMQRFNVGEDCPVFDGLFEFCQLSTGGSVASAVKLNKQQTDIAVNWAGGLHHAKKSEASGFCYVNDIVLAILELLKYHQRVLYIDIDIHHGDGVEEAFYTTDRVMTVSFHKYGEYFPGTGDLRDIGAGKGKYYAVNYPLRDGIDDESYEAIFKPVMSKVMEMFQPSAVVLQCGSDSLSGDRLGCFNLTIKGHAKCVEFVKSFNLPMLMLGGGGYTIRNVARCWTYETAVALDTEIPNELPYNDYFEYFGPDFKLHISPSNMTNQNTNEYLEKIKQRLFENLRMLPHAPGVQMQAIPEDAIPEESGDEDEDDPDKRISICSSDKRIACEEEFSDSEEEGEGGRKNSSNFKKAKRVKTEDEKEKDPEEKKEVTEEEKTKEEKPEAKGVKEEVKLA
Experimental: as §1

Row | IC50 (HDAC6 human recombinant) [nM] | IC50 (HDAC1) [nM] | SMILES
1 | 12 | 2310 | Nc1cccc(-c2cnc3c(ccn3Cc3ccc(C(=O)NO)cc3)c2)c1 [Compound 690, 4-((5-(3-aminophenyl)-1H-pyrrolo[2,3-b]pyridin-1-yl)methyl)-N-hydroxybenzamide]
2 | 5 | 2310 | O=C(NO)c1ccc(Cn2ccc3cc(-c4ccc(O)cc4)cnc32)cc1 [Compound 691, N-hydroxy-4-((5-(4-hydroxyphenyl)-1H-pyrrolo[2,3-b]pyridin-1-yl)methyl)benzamide]
3 | 8 | 3430 | CC(C)(C)OC(=O)N1CC=C(c2cnc3c(ccn3Cc3ccc(C(=O)NO)cc3)c2)CC1 [Compound 692, tert-butyl 4-(1-(4-(hydroxycarbamoyl)benzyl)-1H-pyrrolo[2,3-b]pyridin-5-yl)-5,6-dihydropyridine-1(2H)-carboxylate]
4 | 3 | 520 | O=C(NO)c1ccc(Cn2ccc3cc(C4=CCNCC4)cnc32)cc1 [Compound 693, N-hydroxy-4-((5-(1,2,3,6-tetrahydropyridin-4-yl)-1H-pyrrolo[2,3-b]pyridin-1-yl)methyl)benzamide]
5 | 28 | 5170 | CC(C)(C)OC(=O)N1CCC(c2cnc3c(ccn3Cc3ccc(C(=O)NO)cc3)c2)CC1 [Compound 694, tert-butyl 4-(1-(4-(hydroxycarbamoyl)benzyl)-1H-pyrrolo[2,3-b]pyridin-5-yl)piperidine-1-carboxylate]
6 | 41 | 4240 | O=C(NO)c1ccc(Cn2ccc3c(N4CCN(c5ccc(C(F)(F)F)cn5)CC4)ccnc32)cc1 [Compound 700, N-hydroxy-4-((4-(4-(5-(trifluoromethyl)pyridin-2-yl)piperazin-1-yl)-1H-pyrrolo[2,3-b]pyridin-1-yl)methyl)benzamide]
7 | 23 | 1530 | O=C(NO)c1ccc(Cn2ccc3c(N4CCN(c5cnc(C(F)(F)F)cn5)CC4)ccnc32)cc1 [Compound 701, N-hydroxy-4-((4-(4-(5-(trifluoromethyl)pyrazin-2-yl)piperazin-1-yl)-1H-pyrrolo[2,3-b]pyridin-1-yl)methyl)benzamide]
8 | 16 | 1040 | CCc1cnc(N2CCN(c3ccnc4c3ccn4Cc3ccc(C(=O)NO)cc3)CC2)nc1 [Compound 702, 4-((4-(4-(5-ethylpyrimidin-2-yl)piperazin-1-yl)-1H-pyrrolo[2,3-b]pyridin-1-yl)methyl)-N-hydroxybenzamide]
9 | 6 | 720 | O=C(NO)c1ccc(Cn2ccc3c(N4CCN(C(=O)C5(C(F)(F)F)CCC5)CC4)ccnc32)cc1 [Compound 703, N-hydroxy-4-((4-(4-(1-(trifluoromethyl)cyclobutanecarbonyl)piperazin-1-yl)-1H-pyrrolo[2,3-b]pyridin-1-yl)methyl)benzamide]
10 | 9 | 620 | O=C(NO)c1ccc(Cn2ccc3c(N4CCN(Cc5ccccc5)CC4)ccnc32)cc1 [Compound 704, 4-((4-(4-benzylpiperazin-1-yl)-1H-pyrrolo[2,3-b]pyridin-1-yl)methyl)-N-hydroxybenzamide]
11 | 11 | 1120 | COc1ccc(CN2CCN(c3ccnc4c3ccn4Cc3ccc(C(=O)NO)cc3)CC2)cc1 [Compound 705, N-hydroxy-4-((4-(4-(4-methoxybenzyl)piperazin-1-yl)-1H-pyrrolo[2,3-b]pyridin-1-yl)methyl)-benzamide]
12 | 30 | 2330 | O=C(NO)c1ccc(Cn2ccc3c(N4CCN(Cc5ccc(C(F)(F)F)cc5)CC4)ccnc32)cc1 [Compound 706, N-hydroxy-4-((4-(4-(4-(trifluoromethyl)benzyl)piperazin-1-yl)-1H-pyrrolo[2,3-b]pyridin-1-yl)methyl)benzamide]
13 | 12 | 1200 | CC(C)(O)CN1CCC(c2cnc3c(ccn3Cc3ccc(C(=O)NO)cc3)c2)CC1 [Compound 714, N-hydroxy-4-((5-(1-(2-hydroxy-2-methylpropyl)piperidin-4-yl)-1H-pyrrolo[2,3-b]pyridin-1-yl)methyl)benzamide]
14 | 8 | 540 | O=C(NO)c1ccc(Cn2ccc3cc(C4CCNCC4)cnc32)cc1 [Compound 715, N-hydroxy-4-((5-(piperidin-4-yl)-1H-pyrrolo[2,3-b]pyridin-1-yl)methyl)benzamide]
15 | 19 | 1320 | O=C(NO)c1ccc(Cn2ccc3cc(C4=CCN(CC5CCCCC5)CC4)cnc32)cc1 [Compound 721, 4-((5-(1-(cyclohexylmethyl)-1,2,3,6-tetrahydropyridin-4-yl)-1H-pyrrolo[2,3-b]pyridin-1-yl)methyl)-N-hydroxybenzamide]
16 | 3 | 270 | Nc1cccc(-c2ccnc3c2ccn3Cc2ccc(C(=O)NO)cc2)c1 [Compound 722, 4-((4-(3-aminophenyl)-1H-pyrrolo[2,3-b]pyridin-1-yl)methyl)-N-hydroxybenzamide]
17 | 5 | 310 | CN1CC=C(c2ccnc3c2ccn3Cc2ccc(C(=O)NO)cc2)CC1 [Compound 723, N-hydroxy-4-((4-(1-methyl-1,2,3,6-tetrahydropyridin-4-yl)-1H-pyrrolo[2,3-b]pyridin-1-yl)methyl)benzamide]
18 | 147 | 9820 | O=C(NO)c1ccc(Cn2ccc3cc(C4CCN(CC5(C(F)(F)F)CCC5)CC4)cnc32)cc1 [Compound 724, N-hydroxy-4-((5-(1-((1-(trifluoromethyl)cyclobutyl)methyl)piperidin-4-yl)-1H-pyrrolo[2,3-b]pyridin-1-yl)methyl)benzamide]
19 | 25 | 190 | O=C(NO)c1ccc(Cn2ccc3ccc(C4=CCOCC4)nc32)cc1 [Compound 743, 4-((6-(3,6-dihydro-2H-pyran-4-yl)-1H-pyrrolo[2,3-b]pyridin-1-yl)methyl)-N-hydroxybenzamide]
20 | 62 | 1890 | CC(C)(C)OC(=O)N1CC=C(c2ccc3ccn(Cc4ccc(C(=O)NO)cc4)c3n2)CC1 [Compound 744, tert-butyl 4-(1-(4-(hydroxycarbamoyl)benzyl)-1H-pyrrolo[2,3-b]pyridin-6-yl)-5,6-dihydropyridine-1(2H)-carboxylate]
21 | 22 | 1960 | CC(C)(C)OC(=O)N1CCN(c2cnc3c(ccn3Cc3ccc(C(=O)NO)cc3)c2)CC1 [Compound 746, tert-butyl 4-(1-(4-(hydroxycarbamoyl)benzyl)-1H-pyrrolo[2,3-b]pyridine-5-yl)piperazine-1-carboxylate]
22 | 17 | 1120 | CC(C)(C)OC(=O)N1CC=C(c2nccc3c2ccn3Cc2ccc(C(=O)NO)cc2)CC1 [Compound 757, tert-butyl 4-(1-(4-(hydroxycarbamoyl)benzyl)-1H-pyrrolo[3,2-c]pyridin-4-yl)-5,6-dihydropyridine-1(2H)-carboxylate]
23 | 8 | 1630 | CC(C)(C)OC(=O)N1CC=C(c2ccc3c(ccn3Cc3ccc(C(=O)NO)cc3)n2)CC1 [Compound 758, tert-butyl 4-(1-(4-(hydroxycarbamoyl)benzyl)-1H-pyrrolo[3,2-b]pyridin-5-yl)-5,6-dihydropyridine-1(2H)-carboxylate]
24 | 37 | 3210 | CC(C)(C)OC(=O)N1CCC(F)(CN2CCN(c3ccnc4c3ccn4Cc3ccc(C(=O)NO)cc3)CC2)CC1 [Compound 760, tert-butyl 4-fluoro-4-((4-(1-(4-(hydroxycarbamoyl)benzyl)-1H-pyrrolo[2,3-b]pyridin-4-yl)piperazin-1-yl)methyl)piperidine-1-carboxylate]
25 | 9 | 430 | O=C(NO)c1ccc(Cn2ccc3c(-c4cccc(CN5CCOCC5)c4)ccnc32)cc1 [Compound 761, N-hydroxy-4-((4-(3-(morpholinomethyl)phenyl)-1H-pyrrolo[2,3-b]pyridin-1-yl)methyl)benzamide]
